Test results taken from the kinase profiling compilation of Christmann-Franck et al. (2016).

Key:
Assay in all cases: KINOMEscan competition binding
Conditions in all cases: compound 10.0 µM
ACVR1 (human) = ACVR1 (human) (UniProt Q04771)
AKT1 (human) = AKT1 (human) (UniProt P31749)
ALK (human) = ALK (human) (UniProt Q9UM73)
AURKC (human) = AURKC (human) (UniProt Q9UQB9)
CAMK1G (human) = CAMK1G (human) (UniProt Q96NX5)
CDC42BPG (human) = CDC42BPG (human) (UniProt Q6DT37)
CHEK2 (human) = CHEK2 (human) (UniProt O96017)
DYRK1B (human) = DYRK1B (human) (UniProt Q9Y463)
EPHA5 (human) = EPHA5 (human) (UniProt P54756)
EPHB1 (human) = EPHB1 (human) (UniProt P54762)
FGFR2 (human) = FGFR2 (human) (UniProt P21802)
GSK3A (human) = GSK3A (human) (UniProt P49840)
IGF1R (human) = IGF1R (human) (UniProt P08069)
KDR (human) = KDR (human) (UniProt P35968)
[1] = test system: KIT (human), P10721 [V559D]
MAP4K4 (human) = MAP4K4 (human) (UniProt O95819)
MAPK10 (human) = MAPK10 (human) (UniProt P53779)
MAPK13 (human) = MAPK13 (human) (UniProt O15264)
MAPK9 (human) = MAPK9 (human) (UniProt P45984)
MARK3 (human) = MARK3 (human) (UniProt P27448)
MKNK2 (human) = MKNK2 (human) (UniProt Q9HBH9)
MLTK (human) = MLTK (human) (UniProt Q9NYL2)
NEK6 (human) = NEK6 (human) (UniProt Q9HC98)
NEK9 (human) = NEK9 (human) (UniProt Q8TD19)
NTRK1 (human) = NTRK1 (human) (UniProt P04629)
NTRK2 (human) = NTRK2 (human) (UniProt Q16620)
PIK3C2B (human) = PIK3C2B (human) (UniProt O00750)
PIK3CB (human) = PIK3CB (human) (UniProt P42338)
PIM3 (human) = PIM3 (human) (UniProt Q86V86)
PTK6 (human) = PTK6 (human) (UniProt Q13882)
RIOK2 (human) = RIOK2 (human) (UniProt Q9BVS4)
RIPK4 (human) = RIPK4 (human) (UniProt P57078)
RPS6KA6 KD1 (human) = RPS6KA6 KD1 (human) (UniProt Q9UK32)
SRPK3 (human) = SRPK3 (human) (UniProt Q9UPE1)
TAOK1 (human) = TAOK1 (human) (UniProt Q7L7X3)
TSSK1B (human) = TSSK1B (human) (UniProt Q9BXA7)
TXK (human) = TXK (human) (UniProt P42681)
WEE2 (human) = WEE2 (human) (UniProt P0C1S8)
ACVR2A (human) = ACVR2A (human) (UniProt P27037)
YES1 (human) = YES1 (human) (UniProt P07947)

Sequence of MKNK2 (human) (Q9HBH9 whole entry, looked up): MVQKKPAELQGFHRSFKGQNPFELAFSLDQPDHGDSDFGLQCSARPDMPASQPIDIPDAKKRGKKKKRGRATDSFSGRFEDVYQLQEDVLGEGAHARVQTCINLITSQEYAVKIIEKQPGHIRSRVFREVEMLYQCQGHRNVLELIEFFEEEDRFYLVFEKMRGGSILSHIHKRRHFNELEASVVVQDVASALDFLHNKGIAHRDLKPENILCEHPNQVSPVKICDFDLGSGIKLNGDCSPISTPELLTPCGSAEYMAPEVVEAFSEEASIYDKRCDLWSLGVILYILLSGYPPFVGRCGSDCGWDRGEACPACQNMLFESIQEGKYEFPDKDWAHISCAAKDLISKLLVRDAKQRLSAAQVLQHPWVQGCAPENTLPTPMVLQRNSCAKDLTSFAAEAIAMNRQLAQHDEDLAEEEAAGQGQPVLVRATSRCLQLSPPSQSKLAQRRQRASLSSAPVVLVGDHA
Sequence of NTRK2 (human) (Q16620 whole entry, looked up): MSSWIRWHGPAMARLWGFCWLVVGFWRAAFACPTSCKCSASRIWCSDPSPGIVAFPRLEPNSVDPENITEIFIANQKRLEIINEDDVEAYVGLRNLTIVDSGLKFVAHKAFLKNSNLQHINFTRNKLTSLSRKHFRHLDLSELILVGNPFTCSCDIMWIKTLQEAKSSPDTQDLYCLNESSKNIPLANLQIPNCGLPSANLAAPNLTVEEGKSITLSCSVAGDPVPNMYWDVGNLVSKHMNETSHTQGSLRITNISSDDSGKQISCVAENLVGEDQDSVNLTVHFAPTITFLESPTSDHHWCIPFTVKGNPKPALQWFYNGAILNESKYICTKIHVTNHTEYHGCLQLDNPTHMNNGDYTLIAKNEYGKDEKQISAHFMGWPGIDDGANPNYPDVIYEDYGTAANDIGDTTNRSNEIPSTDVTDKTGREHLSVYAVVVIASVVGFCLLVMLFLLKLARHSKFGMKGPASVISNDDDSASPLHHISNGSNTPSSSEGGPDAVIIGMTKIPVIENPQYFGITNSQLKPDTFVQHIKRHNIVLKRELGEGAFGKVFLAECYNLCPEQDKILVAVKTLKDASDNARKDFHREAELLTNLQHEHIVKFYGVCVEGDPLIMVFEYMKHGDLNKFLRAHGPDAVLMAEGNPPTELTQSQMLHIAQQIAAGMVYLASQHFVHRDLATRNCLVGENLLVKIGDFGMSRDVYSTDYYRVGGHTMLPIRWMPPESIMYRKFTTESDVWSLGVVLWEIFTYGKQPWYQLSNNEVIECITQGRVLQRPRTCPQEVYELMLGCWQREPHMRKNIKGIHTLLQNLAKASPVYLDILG
Sequence of CDC42BPG (human) (Q6DT37 whole entry, looked up): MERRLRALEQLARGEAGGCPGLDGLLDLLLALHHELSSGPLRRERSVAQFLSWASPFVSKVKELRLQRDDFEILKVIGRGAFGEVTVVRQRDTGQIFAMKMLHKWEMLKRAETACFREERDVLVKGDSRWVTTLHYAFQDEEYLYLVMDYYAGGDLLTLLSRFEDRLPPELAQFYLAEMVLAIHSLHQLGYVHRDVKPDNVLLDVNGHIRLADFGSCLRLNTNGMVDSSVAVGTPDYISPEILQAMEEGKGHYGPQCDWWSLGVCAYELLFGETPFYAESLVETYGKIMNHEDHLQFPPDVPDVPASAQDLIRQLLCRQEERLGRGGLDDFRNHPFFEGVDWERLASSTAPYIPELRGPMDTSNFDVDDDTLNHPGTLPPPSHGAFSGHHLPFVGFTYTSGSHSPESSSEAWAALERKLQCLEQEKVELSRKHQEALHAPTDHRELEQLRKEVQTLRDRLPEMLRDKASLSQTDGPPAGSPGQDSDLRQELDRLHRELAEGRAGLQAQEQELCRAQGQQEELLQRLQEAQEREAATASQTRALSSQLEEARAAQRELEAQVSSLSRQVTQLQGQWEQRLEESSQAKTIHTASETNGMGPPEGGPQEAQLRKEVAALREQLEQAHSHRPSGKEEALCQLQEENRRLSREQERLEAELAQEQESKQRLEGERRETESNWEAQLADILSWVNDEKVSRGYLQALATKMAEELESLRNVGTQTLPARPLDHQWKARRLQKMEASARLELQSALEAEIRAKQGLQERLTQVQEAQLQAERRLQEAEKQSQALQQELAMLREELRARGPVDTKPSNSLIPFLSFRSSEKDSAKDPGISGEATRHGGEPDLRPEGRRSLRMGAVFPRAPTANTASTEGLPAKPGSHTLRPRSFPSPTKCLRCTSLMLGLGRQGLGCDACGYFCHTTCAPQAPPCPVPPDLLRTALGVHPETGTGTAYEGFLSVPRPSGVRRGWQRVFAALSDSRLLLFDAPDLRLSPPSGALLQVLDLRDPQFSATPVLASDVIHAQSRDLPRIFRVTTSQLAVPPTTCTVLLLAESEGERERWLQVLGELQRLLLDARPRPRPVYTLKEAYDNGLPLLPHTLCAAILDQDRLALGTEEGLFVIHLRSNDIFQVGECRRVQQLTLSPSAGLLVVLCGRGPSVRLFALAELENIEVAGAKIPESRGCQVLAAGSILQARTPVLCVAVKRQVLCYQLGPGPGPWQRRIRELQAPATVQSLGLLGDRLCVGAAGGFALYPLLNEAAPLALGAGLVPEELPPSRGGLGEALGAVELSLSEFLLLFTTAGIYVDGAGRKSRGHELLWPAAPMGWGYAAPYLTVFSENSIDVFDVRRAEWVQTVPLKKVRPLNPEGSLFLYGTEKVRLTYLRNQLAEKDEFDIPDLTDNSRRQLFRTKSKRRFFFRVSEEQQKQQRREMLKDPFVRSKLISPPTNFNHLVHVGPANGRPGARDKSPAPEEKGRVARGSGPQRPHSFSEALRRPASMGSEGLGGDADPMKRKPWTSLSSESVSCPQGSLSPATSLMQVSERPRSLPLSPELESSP
Sequence of TAOK1 (human) (Q7L7X3 whole entry, looked up): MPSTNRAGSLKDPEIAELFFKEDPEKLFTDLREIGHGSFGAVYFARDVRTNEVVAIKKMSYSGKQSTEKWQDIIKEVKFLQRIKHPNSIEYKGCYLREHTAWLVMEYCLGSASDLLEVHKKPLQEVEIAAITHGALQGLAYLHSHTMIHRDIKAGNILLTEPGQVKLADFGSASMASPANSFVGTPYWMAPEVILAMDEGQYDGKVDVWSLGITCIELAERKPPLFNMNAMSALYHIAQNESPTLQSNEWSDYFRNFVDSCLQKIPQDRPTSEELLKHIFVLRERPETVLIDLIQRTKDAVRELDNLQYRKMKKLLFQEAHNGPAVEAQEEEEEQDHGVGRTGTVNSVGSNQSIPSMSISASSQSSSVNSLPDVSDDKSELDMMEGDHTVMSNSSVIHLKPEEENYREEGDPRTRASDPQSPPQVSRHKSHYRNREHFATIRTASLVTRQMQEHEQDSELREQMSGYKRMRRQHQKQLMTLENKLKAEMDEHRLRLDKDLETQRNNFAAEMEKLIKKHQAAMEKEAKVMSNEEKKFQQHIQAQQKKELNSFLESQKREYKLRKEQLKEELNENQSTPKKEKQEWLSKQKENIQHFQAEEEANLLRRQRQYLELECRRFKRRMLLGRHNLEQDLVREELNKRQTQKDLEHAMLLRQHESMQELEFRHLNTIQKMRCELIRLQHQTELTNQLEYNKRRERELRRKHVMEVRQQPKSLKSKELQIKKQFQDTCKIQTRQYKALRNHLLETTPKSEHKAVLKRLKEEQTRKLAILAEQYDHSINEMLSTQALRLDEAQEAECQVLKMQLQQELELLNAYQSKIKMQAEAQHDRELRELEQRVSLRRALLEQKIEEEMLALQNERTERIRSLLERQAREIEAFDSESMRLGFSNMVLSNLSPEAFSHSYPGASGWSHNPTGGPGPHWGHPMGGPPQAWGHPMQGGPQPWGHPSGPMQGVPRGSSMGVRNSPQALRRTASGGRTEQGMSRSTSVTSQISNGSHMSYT
Sequence of CAMK1G (human) (Q96NX5 whole entry, looked up): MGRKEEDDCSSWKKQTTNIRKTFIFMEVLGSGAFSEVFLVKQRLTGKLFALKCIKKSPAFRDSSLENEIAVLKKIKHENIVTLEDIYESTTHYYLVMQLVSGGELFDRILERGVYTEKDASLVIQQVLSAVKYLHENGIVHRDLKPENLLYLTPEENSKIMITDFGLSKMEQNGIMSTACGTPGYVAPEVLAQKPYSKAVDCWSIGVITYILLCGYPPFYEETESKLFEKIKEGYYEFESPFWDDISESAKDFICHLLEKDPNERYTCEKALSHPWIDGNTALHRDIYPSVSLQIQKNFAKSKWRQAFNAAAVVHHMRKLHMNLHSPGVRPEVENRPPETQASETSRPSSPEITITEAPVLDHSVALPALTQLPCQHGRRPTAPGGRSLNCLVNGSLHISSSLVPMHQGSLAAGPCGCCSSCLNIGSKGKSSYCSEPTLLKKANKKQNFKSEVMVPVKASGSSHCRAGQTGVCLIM
Sequence of NEK6 (human) (Q9HC98 whole entry, looked up): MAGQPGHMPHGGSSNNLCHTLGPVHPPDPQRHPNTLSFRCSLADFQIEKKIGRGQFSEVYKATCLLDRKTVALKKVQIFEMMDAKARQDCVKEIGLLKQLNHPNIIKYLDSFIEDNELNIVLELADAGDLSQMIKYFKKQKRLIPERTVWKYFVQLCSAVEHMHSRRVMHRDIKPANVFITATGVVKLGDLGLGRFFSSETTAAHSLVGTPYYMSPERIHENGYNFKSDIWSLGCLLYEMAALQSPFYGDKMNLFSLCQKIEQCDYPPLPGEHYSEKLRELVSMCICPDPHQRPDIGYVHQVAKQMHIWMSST
Sequence of MAPK9 (human) (P45984 whole entry, looked up): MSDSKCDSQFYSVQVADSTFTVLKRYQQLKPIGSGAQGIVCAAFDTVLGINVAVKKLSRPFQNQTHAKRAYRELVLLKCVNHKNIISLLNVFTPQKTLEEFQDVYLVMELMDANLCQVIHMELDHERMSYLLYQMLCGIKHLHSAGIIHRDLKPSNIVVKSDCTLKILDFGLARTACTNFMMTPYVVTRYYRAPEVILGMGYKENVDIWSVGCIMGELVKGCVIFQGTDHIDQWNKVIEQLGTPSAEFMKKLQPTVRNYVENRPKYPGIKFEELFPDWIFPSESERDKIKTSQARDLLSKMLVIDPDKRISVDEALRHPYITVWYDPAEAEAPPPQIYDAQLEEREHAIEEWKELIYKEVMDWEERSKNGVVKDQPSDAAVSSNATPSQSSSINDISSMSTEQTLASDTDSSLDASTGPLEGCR

Row | Compound | kinase still bound, per cent of control (ACVR1 (human)) | kinase still bound, per cent of control (AKT1 (human)) | kinase still bound, per cent of control (AURKC (human)) | kinase still bound, per cent of control (CAMK1G (human)) | kinase still bound, per cent of control (CDC42BPG (human)) | kinase still bound, per cent of control (CHEK2 (human)) | kinase still bound, per cent of control (DYRK1B (human)) | kinase still bound, per cent of control (EPHA5 (human)) | kinase still bound, per cent of control (EPHB1 (human)) | kinase still bound, per cent of control (FGFR2 (human)) | kinase still bound, per cent of control (GSK3A (human)) | kinase still bound, per cent of control (IGF1R (human)) | kinase still bound, per cent of control [1] | kinase still bound, per cent of control (MAP4K4 (human)) | kinase still bound, per cent of control (MAPK10 (human)) | kinase still bound, per cent of control (MAPK13 (human)) | kinase still bound, per cent of control (MAPK9 (human)) | kinase still bound, per cent of control (MARK3 (human)) | kinase still bound, per cent of control (MKNK2 (human)) | kinase still bound, per cent of control (MLTK (human)) | also measured
1 | COc1cc(N2CCN(C)CC2)ccc1Nc1nc(N)c(C(=O)c2c(Cl)cccc2Cl)s1 | 100% | 100% | 100% | 42% | 100% | 100% | 42% | 100% | 87% | 91% | 67% | 72% | 100% | 76% | 100% | 63% | 100% | 100% | 77% | 100% | kinase still bound, per cent of control (ALK (human)): 0.35%; kinase still bound, per cent of control (KDR (human)): 97%; kinase still bound, per cent of control (NEK6 (human)): 100%; kinase still bound, per cent of control (NEK9 (human)): 100%; kinase still bound, per cent of control (NTRK1 (human)): 62%; kinase still bound, per cent of control (NTRK2 (human)): 80%; kinase still bound, per cent of control (PIK3C2B (human)): 98%; kinase still bound, per cent of control (PIK3CB (human)): 100%; kinase still bound, per cent of control (PIM3 (human)): 100%; kinase still bound, per cent of control (PTK6 (human)): 100%; kinase still bound, per cent of control (RIOK2 (human)): 100%; kinase still bound, per cent of control (RIPK4 (human)): 96%; kinase still bound, per cent of control (RPS6KA6 KD1 (human)): 79%; kinase still bound, per cent of control (SRPK3 (human)): 77%; kinase still bound, per cent of control (TAOK1 (human)): 52%; kinase still bound, per cent of control (TSSK1B (human)): 87%; kinase still bound, per cent of control (TXK (human)): 100%; kinase still bound, per cent of control (WEE2 (human)): 100%
2 | C[C@@H](Oc1cc(-n2cnc3ccc(CN4CCN(C)CC4)cc32)sc1C(N)=O)c1ccccc1C(F)(F)F | 100% | 100% | 100% | 58% | 100% | 69% | 89% | 100% | 99% | 75% | 100% | 100% | 38% | 64% | 100% | 100% | 100% | 63% | 23% | 100% | kinase still bound, per cent of control (ACVR2A (human)): 100%; kinase still bound, per cent of control (ALK (human)): 100%; kinase still bound, per cent of control (KDR (human)): 100%; kinase still bound, per cent of control (NEK6 (human)): 95%; kinase still bound, per cent of control (NEK9 (human)): 10%; kinase still bound, per cent of control (NTRK1 (human)): 74%; kinase still bound, per cent of control (NTRK2 (human)): 68%; kinase still bound, per cent of control (PIK3C2B (human)): 14%; kinase still bound, per cent of control (PIK3CB (human)): 0.8%; kinase still bound, per cent of control (PIM3 (human)): 11%; kinase still bound, per cent of control (PTK6 (human)): 93%; kinase still bound, per cent of control (RIOK2 (human)): 65%; kinase still bound, per cent of control (RIPK4 (human)): 52%; kinase still bound, per cent of control (RPS6KA6 KD1 (human)): 0.6%; kinase still bound, per cent of control (SRPK3 (human)): 9.6%; kinase still bound, per cent of control (TAOK1 (human)): 14%; kinase still bound, per cent of control (TSSK1B (human)): 19%; kinase still bound, per cent of control (TXK (human)): 71%; kinase still bound, per cent of control (WEE2 (human)): 83%
3 | CC[C@@H]1C(=O)N(C)c2cnc(Nc3ccc(C(=O)NC4CCN(C)CC4)cc3OC)nc2N1C1CCCC1 | 100% | 100% | 100% | 100% | 100% | 100% | 100% | 100% | 100% | 100% | 100% | 100% | 100% | 100% | 100% | 100% | 100% | 100% | 100% | 100% | kinase still bound, per cent of control (ACVR2A (human)): 100%; kinase still bound, per cent of control (NEK6 (human)): 100%; kinase still bound, per cent of control (NEK9 (human)): 100%; kinase still bound, per cent of control (NTRK2 (human)): 100%; kinase still bound, per cent of control (PIK3C2B (human)): 100%; kinase still bound, per cent of control (PIK3CB (human)): 100%; kinase still bound, per cent of control (PIM3 (human)): 100%; kinase still bound, per cent of control (PTK6 (human)): 100%; kinase still bound, per cent of control (RIOK2 (human)): 100%; kinase still bound, per cent of control (RIPK4 (human)): 100%; kinase still bound, per cent of control (RPS6KA6 KD1 (human)): 100%; kinase still bound, per cent of control (SRPK3 (human)): 100%; kinase still bound, per cent of control (TAOK1 (human)): 100%; kinase still bound, per cent of control (TSSK1B (human)): 100%; kinase still bound, per cent of control (TXK (human)): 100%; kinase still bound, per cent of control (WEE2 (human)): 100%; kinase still bound, per cent of control (YES1 (human)): 100%
4 | Cn1c(=O)n(-c2ccc(C(C)(C)C#N)cc2)c2c3cc(-c4cnc5ccccc5c4)ccc3ncc21 | 100% | 100% | 100% | 100% | 100% | 100% | 100% | 100% | 100% | 100% | 100% | 100% | 100% | 100% | 100% | 100% | 100% | 100% | 100% | 100% | kinase still bound, per cent of control (ACVR2A (human)): 100%; kinase still bound, per cent of control (ALK (human)): 100%; kinase still bound, per cent of control (KDR (human)): 100%; kinase still bound, per cent of control (NEK6 (human)): 100%; kinase still bound, per cent of control (NEK9 (human)): 100%; kinase still bound, per cent of control (NTRK2 (human)): 100%; kinase still bound, per cent of control (PIK3C2B (human)): 2.8%; kinase still bound, per cent of control (PIK3CB (human)): 22%; kinase still bound, per cent of control (PIM3 (human)): 100%; kinase still bound, per cent of control (PTK6 (human)): 100%; kinase still bound, per cent of control (RIOK2 (human)): 100%; kinase still bound, per cent of control (RIPK4 (human)): 100%; kinase still bound, per cent of control (RPS6KA6 KD1 (human)): 100%; kinase still bound, per cent of control (SRPK3 (human)): 100%; kinase still bound, per cent of control (TAOK1 (human)): 100%; kinase still bound, per cent of control (TSSK1B (human)): 100%; kinase still bound, per cent of control (TXK (human)): 100%; kinase still bound, per cent of control (WEE2 (human)): 100%; kinase still bound, per cent of control (YES1 (human)): 100%
